Assay results taken from PMC5826726 (Biochemical pharmacology, 2017).
Where two headings read alike, the source gives them in different places. One block for each compound: values may come before it.

What was measured:
[1] = PAMPA; for Flux: 4 h, 400 µM
[2] = target: T1, NNMT (Mus musculus, UniProt O55239); conditions: read-out: IC50 (NNMT inhibition); biochemical assay; cited from earlier work
T1 sequence (O55239 1-264): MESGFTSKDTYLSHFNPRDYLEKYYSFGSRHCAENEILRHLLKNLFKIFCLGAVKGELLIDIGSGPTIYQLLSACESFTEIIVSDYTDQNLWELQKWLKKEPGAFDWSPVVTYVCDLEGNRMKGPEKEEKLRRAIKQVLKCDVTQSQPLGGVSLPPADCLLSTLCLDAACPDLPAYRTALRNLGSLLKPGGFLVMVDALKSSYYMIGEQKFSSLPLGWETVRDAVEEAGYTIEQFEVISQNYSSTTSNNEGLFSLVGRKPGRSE

[3] = target: T1, NNMT; assay: Intracellular NNMT reaction product 1-MNA in cultured 3T3-L1 cells; conditions: 24 h; for 1-MNA levels in adipocytes relative to control: 10 µM; for Intracellular levels of 1-MNA vs untreated controls: 30 µM
[4] = target: recombinant human DNMT1 (Homo sapiens, UniProt P26358); assay: DNMT1 radiometric activity assay; assay type: biochemical; conditions: for Inhibition of DNMT1: 10 nM to 200 µM (1,8-diMQ) or 600 µM (5-amino-1MQ); for IC50: read-out: IC50, DNA (cytosine-5)-methyltransferase 1, NI: no inhibition, NC: not calculable
Chain of recombinant human DNMT1 (P26358 whole entry): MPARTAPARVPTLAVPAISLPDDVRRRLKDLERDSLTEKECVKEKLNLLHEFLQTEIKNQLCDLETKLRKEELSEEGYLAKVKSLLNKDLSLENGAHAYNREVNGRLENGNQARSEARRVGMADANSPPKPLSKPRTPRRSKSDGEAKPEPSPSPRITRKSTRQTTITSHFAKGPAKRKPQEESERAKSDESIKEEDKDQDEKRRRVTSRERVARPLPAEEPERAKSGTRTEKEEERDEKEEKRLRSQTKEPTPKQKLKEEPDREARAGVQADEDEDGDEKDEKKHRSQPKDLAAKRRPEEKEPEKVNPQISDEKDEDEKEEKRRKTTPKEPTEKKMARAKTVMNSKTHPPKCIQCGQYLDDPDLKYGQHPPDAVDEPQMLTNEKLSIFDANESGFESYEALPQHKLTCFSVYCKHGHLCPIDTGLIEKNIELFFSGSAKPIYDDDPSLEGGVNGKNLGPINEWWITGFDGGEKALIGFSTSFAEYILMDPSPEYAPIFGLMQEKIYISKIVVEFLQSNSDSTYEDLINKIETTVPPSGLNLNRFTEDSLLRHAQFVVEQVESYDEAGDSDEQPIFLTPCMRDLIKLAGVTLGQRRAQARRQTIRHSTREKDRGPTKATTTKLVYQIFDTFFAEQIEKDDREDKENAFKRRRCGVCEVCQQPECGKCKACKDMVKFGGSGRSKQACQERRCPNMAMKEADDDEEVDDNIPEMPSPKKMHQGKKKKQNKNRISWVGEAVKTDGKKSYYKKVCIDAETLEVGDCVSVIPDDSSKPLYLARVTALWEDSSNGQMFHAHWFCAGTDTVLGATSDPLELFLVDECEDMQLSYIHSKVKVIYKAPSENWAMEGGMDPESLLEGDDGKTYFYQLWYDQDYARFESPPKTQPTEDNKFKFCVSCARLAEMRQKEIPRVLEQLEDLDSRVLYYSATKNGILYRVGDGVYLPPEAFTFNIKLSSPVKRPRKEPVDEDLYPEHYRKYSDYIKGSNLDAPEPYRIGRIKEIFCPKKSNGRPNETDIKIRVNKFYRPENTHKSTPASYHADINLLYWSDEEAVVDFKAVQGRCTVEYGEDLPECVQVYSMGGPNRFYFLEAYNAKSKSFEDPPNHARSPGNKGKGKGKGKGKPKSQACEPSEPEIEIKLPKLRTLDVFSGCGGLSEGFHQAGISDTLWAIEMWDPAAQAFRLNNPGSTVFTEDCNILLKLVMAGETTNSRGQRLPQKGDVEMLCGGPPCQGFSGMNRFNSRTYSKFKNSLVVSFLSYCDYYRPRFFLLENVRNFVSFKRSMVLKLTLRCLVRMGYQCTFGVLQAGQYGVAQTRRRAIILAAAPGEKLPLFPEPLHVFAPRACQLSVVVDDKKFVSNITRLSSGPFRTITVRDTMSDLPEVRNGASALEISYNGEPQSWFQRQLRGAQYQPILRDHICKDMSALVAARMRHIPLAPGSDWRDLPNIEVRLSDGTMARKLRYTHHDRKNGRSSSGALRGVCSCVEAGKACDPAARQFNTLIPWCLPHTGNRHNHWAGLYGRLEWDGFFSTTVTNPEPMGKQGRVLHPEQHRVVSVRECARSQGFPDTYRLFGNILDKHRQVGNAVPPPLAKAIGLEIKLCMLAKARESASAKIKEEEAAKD

[5] = target: recombinant human PRMT3 (Homo sapiens, UniProt O60678); assay: PRMT3 radiometric activity assay; assay type: biochemical; conditions: for Inhibition of PRMT3: 10 nM to 200 µM (1,8-diMQ) or 600 µM (5-amino-1MQ)
Chain of recombinant human PRMT3 (O60678 whole entry): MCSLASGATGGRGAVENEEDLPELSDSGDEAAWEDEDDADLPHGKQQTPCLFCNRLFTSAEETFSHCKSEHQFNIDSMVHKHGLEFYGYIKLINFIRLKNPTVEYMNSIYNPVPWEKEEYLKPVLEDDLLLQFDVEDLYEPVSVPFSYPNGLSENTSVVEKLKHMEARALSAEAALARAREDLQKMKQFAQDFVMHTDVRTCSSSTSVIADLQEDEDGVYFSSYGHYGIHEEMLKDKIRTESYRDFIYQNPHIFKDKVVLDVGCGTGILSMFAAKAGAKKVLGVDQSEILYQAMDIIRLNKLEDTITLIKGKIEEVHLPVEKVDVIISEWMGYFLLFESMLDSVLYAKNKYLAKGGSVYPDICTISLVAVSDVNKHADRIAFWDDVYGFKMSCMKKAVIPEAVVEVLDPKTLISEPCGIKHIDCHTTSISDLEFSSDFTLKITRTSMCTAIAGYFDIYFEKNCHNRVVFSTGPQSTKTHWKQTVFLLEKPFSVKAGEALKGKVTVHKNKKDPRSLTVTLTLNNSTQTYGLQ

[6] = target: T2, recombinant human COMT (Homo sapiens, UniProt P21964); assay: COMT radiometric activity assay; assay type: biochemical
T2 sequence (P21964 1-271): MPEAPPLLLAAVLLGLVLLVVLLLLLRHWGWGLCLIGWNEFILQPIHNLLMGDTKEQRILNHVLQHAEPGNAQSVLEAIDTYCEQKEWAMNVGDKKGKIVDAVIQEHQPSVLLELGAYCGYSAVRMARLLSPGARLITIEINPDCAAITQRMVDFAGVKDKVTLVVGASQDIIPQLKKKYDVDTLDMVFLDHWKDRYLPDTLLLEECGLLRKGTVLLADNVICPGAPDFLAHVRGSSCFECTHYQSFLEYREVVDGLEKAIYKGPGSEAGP

[7] = system: Caco-2 cells; assay: Bi-directional permeability assay with Caco-2 cells
[8] = Parallel artificial membrane permeability assay; conditions: for Flux: PAMPA passive transport, 400 µM donor in PBS, 4 h, room temperature; for Permeability Classification: PAMPA, BCS, Biopharmaceutics Classification System
[9] = system: Caco-2 cells; conditions: for Classification (Caco-2 permeability/efflux) / Efflux Ratio (Re): Caco-2; for Mean A➔B Papp / Mean B➔A Papp: Caco-2, pH 7.4
[10] = system: 3T3-L1 pre-adipocytes; assay: MTT cell viability assay; assay type: cell-based; conditions: highest tested concentration (0.1 – 60 µM range, Figure 6C)
[11] = target: recombinant human NAMPT (Homo sapiens, UniProt P43490); assay: NAMPT fluorometric activity assay; assay type: biochemical
Chain of recombinant human NAMPT (P43490 whole entry): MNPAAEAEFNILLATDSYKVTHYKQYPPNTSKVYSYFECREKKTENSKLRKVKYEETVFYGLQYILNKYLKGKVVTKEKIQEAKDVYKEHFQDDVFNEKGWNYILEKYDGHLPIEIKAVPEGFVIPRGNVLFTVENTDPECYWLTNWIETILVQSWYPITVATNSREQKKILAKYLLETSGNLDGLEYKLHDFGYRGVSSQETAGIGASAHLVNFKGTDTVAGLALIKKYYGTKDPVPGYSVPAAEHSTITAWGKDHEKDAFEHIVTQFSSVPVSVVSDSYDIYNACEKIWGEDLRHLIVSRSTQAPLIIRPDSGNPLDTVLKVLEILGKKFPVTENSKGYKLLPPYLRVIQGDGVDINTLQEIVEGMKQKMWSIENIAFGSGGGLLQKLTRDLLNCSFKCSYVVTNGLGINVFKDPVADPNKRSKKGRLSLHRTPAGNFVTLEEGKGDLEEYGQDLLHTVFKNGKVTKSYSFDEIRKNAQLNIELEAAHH

[12] = target: T3, recombinant human SIRT-1 (Homo sapiens, UniProt Q96EB6); assay: SIRT-1 fluorometric activity assay; assay type: biochemical
T3 sequence (Q96EB6 1-747): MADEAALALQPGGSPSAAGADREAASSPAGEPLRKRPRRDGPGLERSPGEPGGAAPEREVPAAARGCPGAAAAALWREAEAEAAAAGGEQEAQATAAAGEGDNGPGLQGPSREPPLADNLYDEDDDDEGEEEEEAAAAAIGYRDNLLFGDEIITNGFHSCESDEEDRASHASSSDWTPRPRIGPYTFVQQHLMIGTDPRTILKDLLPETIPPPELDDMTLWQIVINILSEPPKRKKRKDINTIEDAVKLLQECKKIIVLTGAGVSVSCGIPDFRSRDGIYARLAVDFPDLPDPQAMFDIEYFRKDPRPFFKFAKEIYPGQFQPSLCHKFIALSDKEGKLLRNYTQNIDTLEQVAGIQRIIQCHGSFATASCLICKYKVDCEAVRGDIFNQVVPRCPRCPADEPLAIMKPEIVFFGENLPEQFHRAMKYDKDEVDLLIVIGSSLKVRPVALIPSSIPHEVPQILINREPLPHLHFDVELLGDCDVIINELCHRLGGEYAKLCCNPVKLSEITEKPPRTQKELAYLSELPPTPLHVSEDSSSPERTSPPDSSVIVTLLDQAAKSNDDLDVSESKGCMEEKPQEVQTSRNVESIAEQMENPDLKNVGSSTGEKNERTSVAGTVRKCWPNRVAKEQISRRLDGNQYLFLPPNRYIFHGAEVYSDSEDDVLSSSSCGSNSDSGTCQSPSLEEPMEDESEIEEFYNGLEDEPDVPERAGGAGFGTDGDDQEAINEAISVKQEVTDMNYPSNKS

[13] = system: DIO C57Bl/6 mice; assay: Efficacy in diet-induced obese; assay type: in vivo
[14] = system: 3T3-L1 cells; assay: Adipocyte differentiation / lipogenesis by oil red O staining; assay type: cell-based; conditions: differentiating 3T3-L1 cells
[15] = system: differentiated 3T3-L1 adipocytes; assay: Intracellular metabolites; conditions: 24 h
[16] = DIO mice, 20 mg/kg SC three times daily, 11 days

SMILES: Cc1cc(C)[n+](C)c2c(C)cccc12 [1,2,4,8-tetraMQ]
Permeability Classification [1]: Low permeability
Flux [1]: 6.982e-07 cm/s
IC50 [2]: 109000 nM
1-MNA levels in adipocytes relative to control ([3]; differentiated adipocytes): did not significantly decrease

SMILES: Cc1cccc2ccc[n+](C)c12 [1,8-diMQ]
Inhibition of DNMT1 [4]: did not inhibit
IC50 [4]: > 200 µM
Inhibition of PRMT3 [5]: did not inhibit
Inhibition of COMT ([6]; maximal tested concentration 200 µM): 20%
IC50 [2]: 1800 nM
Mean B➔A Papp ([7]; Caco-2, 10 µM, 2 h, pH 7.4): 1.78 10^−6 cm/s
Mean A➔B Papp ([7]; Caco-2, 10 µM, 2 h, pH 7.4, BLQ: no peak detected in receiver side sample): BLQ
Classification (Caco-2 permeability/efflux) ([7]; Caco-2 assay): Low permeability
Flux [8]: 8.637e-07 cm/s
Permeability Classification [8]: Low permeability

SMILES: C[n+]1cccc(C(N)=O)c1 [1-MNA, 1-methylnicotinamide, reference compound]
Flux [8]: 0 cm/s
Permeability Classification [8]: No permeability

SMILES: C[n+]1cccc2c(N)cccc21 [5-amino-1MQ, 5-amino-1-methylquinolinium]
3T3-L1 cell viability vs untreated [10]: only slightly reduced
Inhibition of DNMT1 [4]: did not inhibit
IC50 [4]: > 200 µM
Inhibition of PRMT3 [5]: did not inhibit
Inhibition of COMT ([6]; maximal tested concentration 600 µM): 10%
IC50 ([11]; read-out: IC50, Nicotinamide phosphoribosyl transferase, concentrations above 100 µM could not be tested due to interference in the assay readout signal): > 100 µM
Inhibition of NAMPT ([11]; up to a tested concentration of 100 µM): did not inhibit
Inhibition of SIRT1 ([12]; 10 nM – 300 µM): did not inhibit
SIRT1 activity ([12]; 600 µM): minor reduction
Tolerability in dose escalation study ([13]; DIO mice (n=2), total dose of 60 mg/kg/day): well tolerated with no observable adverse effects
Decrease in adipocyte size (EWAT histology) vs control DIO mice [13, 16]: > 30%
Total cumulative food intake [13, 16]: 26.2 ± 1.4 g
Decrease in adipocyte volume vs control DIO mice ([13]; DIO mice, 20 mg/kg SC three times daily, 11 days (data not shown)): > 40%
Plasma total cholesterol lower relative to control DIO mice ([13]; DIO mice, 20 mg/kg SC three times daily, 11 days, 4 h fast): ~ 30%
Reduction of lipogenesis vs control untreated adipocytes ([14]; 30 µM): 50%
Reduction of lipogenesis vs control untreated adipocytes ([14]; 60 µM): 70%
Permeability Classification [1]: High permeability
Flux [1]: 3.015e-06 cm/s
Classification (Caco-2 permeability/efflux) [9]: High permeability (no efflux)
Mean A➔B Papp [9]: 34.2 10^−6 cm/s
Mean B➔A Papp [9]: 45.2 10^−6 cm/s
IC50 [2]: 1200 nM
Efflux Ratio (Re) ([7]; Re=Papp (B→A)/Papp (A→B)): 1.33
Relative intracellular 1-MNA level (of level in untreated adipocytes) ([3]; adipocytes, 10–60 µM, plateau): ~ 40%
1-MNA levels in adipocytes relative to control ([3]; differentiated adipocytes): significantly decreased
Intracellular levels of 1-MNA vs untreated controls ([3]; differentiated adipocytes): significant reduction
Intracellular levels of 1-MNA vs untreated controls ([3]; pre-adipocytes): significant reduction
EC50 ([3]; read-out: EC50 (inhibition of NNMT, intracellular 1-MNA), fully differentiated adipocytes, 0.3–60 µM): 2300 nM
Intracellular NAD+ levels vs control ([15]; 10 µM): significant increase
Intracellular SAM levels vs control ([15]; 30 µM): significant increase
Intracellular levels of NA ([15]; 0.3–60 µM): no statistically significant main effect
Intracellular levels of SAH ([15]; 0.3–60 µM): no statistically significant main effect
Increase in NAD+ levels relative to control adipocytes ([15]; 1–60 µM): 1.2–1.6 fold

SMILES: C[n+]1cccc2c(N)c(F)ccc21 [5-amino-6-fluoro-1MQ]
Inhibition of NAMPT ([11]; concentrations between 30 and 600 µM (data not shown)): no inhibition

SMILES: c1ccc2ncccc2c1 [Quinoline, reference compound]
Permeability Classification [1]: High permeability

SMILES: Nc1ncnc2c1ncn2[C@@H]1O[C@H](CSCC[C@H](N)C(=O)O)[C@@H](O)[C@H]1O [SAH, reference compound]
IC50 ([5]; read-out: IC50, Protein arginine methyltransferase 3, NI: no inhibition, NC: not calculable): 6.6 ± 1.2 µM

More lines, main results first:

Permeability Classification [1]: No permeability
SMILES: C[n+]1cccc2ccccc21 [1-MQ, 1-methylquinolinium]
IC50 [2]: 12100 nM

Permeability Classification [1]: High permeability
Flux [1]: 3.898e-06 cm/s
Classification (Caco-2 permeability/efflux) [9]: Moderate permeability (moderate efflux)
Efflux Ratio (Re) [9]: 4.03
Mean A➔B Papp [9]: 5.27 10^−6 cm/s
Mean B➔A Papp [9]: 21.2 10^−6 cm/s
SMILES: C[n+]1c(N)c(N)cc2ccccc21 [2,3-diamine-1MQ]
IC50 [2]: 2800 nM

Permeability Classification [1]: Moderate permeability
Flux [1]: 1.078e-06 cm/s
1-MNA levels in adipocytes relative to control ([3]; differentiated adipocytes): significantly decreased
SMILES: C[n+]1cc(N)cc2cc(F)ccc21 [3-amino-6-fluoro-1MQ]
IC50 [2]: 1200 nM

Permeability Classification [1]: High permeability
Flux [1]: 2.055e-06 cm/s
Classification (Caco-2 permeability/efflux) [9]: High permeability (no efflux)
Efflux Ratio (Re) [9]: 1.52
Mean A➔B Papp [9]: 26.0 10^−6 cm/s
Mean B➔A Papp [9]: 39.6 10^−6 cm/s
SMILES: C[n+]1cccc2ccc(N)cc21 [7-amino-1MQ]
IC50 [2]: 2600 nM
